Experimental data as given in ChEMBL document CHEMBL1201862, “PubChem BioAssay data set” (2004).
Active and inactive are the calls of the source.

What was measured:
Insulin-degrading enzyme [1] = molecular target: T1, Insulin-degrading enzyme (Homo sapiens, UniProt P14735); assay: activators of recombinant IDE enzyme, dose response, counter-screen for IDE activator project, biochemical, fluorescence polarization (AID 588681)
T1 sequence (P14735 whole entry): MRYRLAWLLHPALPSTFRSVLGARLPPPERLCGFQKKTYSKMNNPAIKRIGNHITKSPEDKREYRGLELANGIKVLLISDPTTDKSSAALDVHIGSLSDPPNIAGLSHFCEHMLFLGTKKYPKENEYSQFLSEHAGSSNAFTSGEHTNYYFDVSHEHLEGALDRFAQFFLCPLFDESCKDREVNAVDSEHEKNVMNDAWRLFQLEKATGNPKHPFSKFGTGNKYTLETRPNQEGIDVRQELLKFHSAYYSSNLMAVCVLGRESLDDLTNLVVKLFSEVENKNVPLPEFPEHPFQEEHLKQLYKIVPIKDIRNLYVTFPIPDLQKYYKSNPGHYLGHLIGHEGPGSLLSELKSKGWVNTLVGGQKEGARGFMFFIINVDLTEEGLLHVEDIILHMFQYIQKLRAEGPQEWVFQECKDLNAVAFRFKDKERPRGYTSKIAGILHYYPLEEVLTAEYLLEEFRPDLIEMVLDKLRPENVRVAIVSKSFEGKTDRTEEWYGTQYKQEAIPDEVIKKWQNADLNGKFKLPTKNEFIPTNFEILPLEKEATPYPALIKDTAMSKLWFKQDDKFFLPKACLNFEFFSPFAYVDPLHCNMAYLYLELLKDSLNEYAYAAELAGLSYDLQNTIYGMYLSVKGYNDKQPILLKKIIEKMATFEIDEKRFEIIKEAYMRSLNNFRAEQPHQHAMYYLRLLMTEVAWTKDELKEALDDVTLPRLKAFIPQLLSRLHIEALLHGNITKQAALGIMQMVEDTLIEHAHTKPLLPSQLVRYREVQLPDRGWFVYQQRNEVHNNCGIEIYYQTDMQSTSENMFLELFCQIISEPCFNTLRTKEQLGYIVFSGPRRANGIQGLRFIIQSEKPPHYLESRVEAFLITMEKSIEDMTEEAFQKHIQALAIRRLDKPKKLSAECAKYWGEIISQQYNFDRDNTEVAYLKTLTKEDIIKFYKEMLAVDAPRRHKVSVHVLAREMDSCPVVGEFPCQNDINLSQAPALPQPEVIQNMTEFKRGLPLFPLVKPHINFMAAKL

Insulin-degrading enzyme [2] = molecular target: T1, Insulin-degrading enzyme; assay: activators of endogenous IDE in HEK cells, dose response, cell-based, fluorescence polarization (AID 588439); assay type: functional
HEK293 [3] = assay: HEK cell cytotoxicity by LDH release, dose response, cytotoxicity control for IDE activator project, fluorescence, HEK cells (AID 588440); assay type: functional, cell-based; conditions: Homo sapiens;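 also: cytotoxicity by LDH release measuring loss of membrane integrity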
HEK293 [4] = assay: optical interference in Abeta FP readout, dose response, artefact control for IDE activator project, biochemical, fluorescence polarization (AID 588442); assay type: functional, cell-based; conditions: Homo sapiens
Cytochrome P450 2D6 = Cytochrome P450 2D6 (Homo sapiens, UniProt P10635);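 also: CYP2D6 member of a cytochrome P450 panel assay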
Cytochrome P450 3A4 = Cytochrome P450 3A4 (Homo sapiens, UniProt P08684);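 also: CYP3A4 tested as one member of a cytochrome P450 panel screen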
[5] = inhibitors of firefly luciferase expression or activity, dose response, H4 neuroglioma cells, luminescence (AID 1990); assay type: functional, cell-based
[6] = test system: Streptococcus sp. 'group A'; assay: growth inhibition of control SK(-) GAS strain, dose response, counter-screen for streptokinase expression inhibitor project, luminescence, kanamycin, BacTiterGlo, confirmation (AID 1900); assay type: functional, organism-based
[7] = Luminescence Cell-Based Dose Response HTS to Identify Inhibitors of 5'UTR Stem-Loop Driven Prion Protein mRNA Translation in H4 Neuroglioblastoma Cells. [Related pubchem assays: 1827 (Project Summary), 1813 (Primary HTS)]; assay type: functional
Beta-galactosidase = Beta-galactosidase (Escherichia coli, UniProt Q8VNN2); assay: PubChem AID 485352; assay type: functional
[8] = inhibitors of SNCA 5'UTR-driven reporter translation, confirmation, H4 neuroglioma cells, luminescence (AID 1988); assay type: functional, cell-based
Streptokinase A = molecular target: T2, Streptokinase A (Streptococcus pyogenes serotype M1, UniProt P10520); assay: S. pyogenes streptokinase expression inhibitors, potency, dose response, plasminogen activation absorbance, OD405 (AID 1914); assay type: functional, Streptococcus pyogenes M1 GAS;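 also: secreted streptokinase activity via plasminogen activation per viability signal from cell pellet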
T2 sequence (P10520 whole entry): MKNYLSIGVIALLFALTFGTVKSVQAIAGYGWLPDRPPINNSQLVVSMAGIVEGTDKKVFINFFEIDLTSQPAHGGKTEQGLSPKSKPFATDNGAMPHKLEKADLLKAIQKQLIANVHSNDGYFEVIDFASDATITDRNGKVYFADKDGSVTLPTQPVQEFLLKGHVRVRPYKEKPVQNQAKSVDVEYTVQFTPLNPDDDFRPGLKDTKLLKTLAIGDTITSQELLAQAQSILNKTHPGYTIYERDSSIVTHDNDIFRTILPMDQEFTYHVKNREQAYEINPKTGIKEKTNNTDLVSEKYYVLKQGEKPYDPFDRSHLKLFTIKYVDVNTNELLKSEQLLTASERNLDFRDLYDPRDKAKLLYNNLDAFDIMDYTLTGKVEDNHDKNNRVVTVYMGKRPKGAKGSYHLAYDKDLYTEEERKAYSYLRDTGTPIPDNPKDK

[9] = molecular target: T3, Type-1 angiotensin II receptor (Homo sapiens, UniProt P30556); assay: AT1 receptor antagonists, dose response, selectivity assay for APJ receptor antagonist project, cell-based, uHTS hits (AID 463214); assay type: functional;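 also: antagonist potency against angiotensin II stimulated AT1 response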
T3 sequence (P30556 whole entry): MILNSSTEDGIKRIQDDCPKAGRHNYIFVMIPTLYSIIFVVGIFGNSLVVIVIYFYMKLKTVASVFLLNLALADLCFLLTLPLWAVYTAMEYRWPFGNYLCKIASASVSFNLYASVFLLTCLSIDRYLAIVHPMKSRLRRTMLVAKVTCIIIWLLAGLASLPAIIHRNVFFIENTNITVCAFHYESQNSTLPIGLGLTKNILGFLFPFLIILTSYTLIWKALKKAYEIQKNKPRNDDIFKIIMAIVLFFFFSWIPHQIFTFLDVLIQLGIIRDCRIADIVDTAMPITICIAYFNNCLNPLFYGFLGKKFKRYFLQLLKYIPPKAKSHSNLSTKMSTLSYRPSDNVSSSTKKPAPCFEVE

Streptococcus = assay: Group A Streptococcus viability loss, dose response, counter-screen for streptokinase expression inhibitor project, luminescence, BacTiterGlo (AID 1915); assay type: functional, organism-based;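 also: potency for reduction of bacterial viability or growth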
[10] = Shn3 3'UTR reporter inhibitors, dose response, cell-based, Clone20 osteoblasts, firefly luciferase, cherry-picked (AID 624132); assay type: functional;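 also: firefly luciferase luminescence from reporter carrying the Shn3 3'UTR in osteoblasts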
[11] = HepG2 cell cytotoxicity, dose response, cytotoxicity control for Shn3 inhibitor project, CellTiter-Glo, cherry-picked (AID 624134); assay type: functional, cell-based
[12] = control 3'UTR Renilla luciferase suppression, dose response, counter-screen for Shn3 inhibitor project, cell-based, Clone20-Shn3RL, cherry-picked (AID 624133); assay type: functional
HeLa = assay: HeLa cell cytotoxicity, dose response, cytotoxicity control for MITF activator project, CellTiter-Glo luminescence, cherry-pick samples (AID 540259); assay type: functional, cell-based; conditions: Homo sapiens
[13] = molecular target: Ras and Rab interactor 1/Tyrosine-protein kinase ABL1 (Homo sapiens, UniProt P00519+Q13671); assay type: functional;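 also: biochemical TR-FRET dose-response test measuring inhibition of binding between Rin1 and Abl proteins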
Melanocortin receptor 4 = Melanocortin receptor 4 (Homo sapiens, UniProt P32245); assay: MC4R antagonist potency on cAMP, dose response, cell-based, TR-FRET, biased antagonists (AID 602298); assay type: functional;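 also: antagonist potency against agonist-stimulated cAMP production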
[14] = nonselective inhibitors of cellular cAMP signaling, dose response, counter-screen for MC4R biased antagonist project, cell-based, TR-FRET cAMP detection (AID 602305); assay type: functional;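 also: U2OS cells stimulated with forskolin near its EC80 as the cAMP inducer; potency is for inhibition of forskolin-stimulated cAMP signaling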
[15] = A549 cell cytotoxicity, dose response, cytotoxicity control, plate reader, cherry-pick, antagonist series (AID 743412); assay type: functional, cell-based
[16] = HepG2 cell cytotoxicity, dose response, cytotoxicity control, plate reader, cherry-pick, antagonist series (AID 743416); assay type: functional, cell-based
[17] = LGR2 antagonists, dose response, cell-based, HEK293, CRE-luciferase reporter, cherry pick, set 2 (AID 743343); assay type: functional;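 also: transfected cells were stimulated with diluted bursicon conditioned medium after compound addition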
[18] = MC4R antagonists, dose response, counter-screen for LGR2 antagonist project, cell-based, plate reader, cherry pick (AID 743444); assay type: functional;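 also: transfected HEK 293 cells stimulated with alpha-MSH peptide; potency of inhibitors of the alpha-MSH evoked signal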
[19] = HEK293 cell cytotoxicity, dose response, cytotoxicity control, plate reader, cherry-picked samples (AID 743446); assay type: functional, cell-based

Chain of Ras and Rab interactor 1/Tyrosine-protein kinase ABL1 (P00519 whole entry): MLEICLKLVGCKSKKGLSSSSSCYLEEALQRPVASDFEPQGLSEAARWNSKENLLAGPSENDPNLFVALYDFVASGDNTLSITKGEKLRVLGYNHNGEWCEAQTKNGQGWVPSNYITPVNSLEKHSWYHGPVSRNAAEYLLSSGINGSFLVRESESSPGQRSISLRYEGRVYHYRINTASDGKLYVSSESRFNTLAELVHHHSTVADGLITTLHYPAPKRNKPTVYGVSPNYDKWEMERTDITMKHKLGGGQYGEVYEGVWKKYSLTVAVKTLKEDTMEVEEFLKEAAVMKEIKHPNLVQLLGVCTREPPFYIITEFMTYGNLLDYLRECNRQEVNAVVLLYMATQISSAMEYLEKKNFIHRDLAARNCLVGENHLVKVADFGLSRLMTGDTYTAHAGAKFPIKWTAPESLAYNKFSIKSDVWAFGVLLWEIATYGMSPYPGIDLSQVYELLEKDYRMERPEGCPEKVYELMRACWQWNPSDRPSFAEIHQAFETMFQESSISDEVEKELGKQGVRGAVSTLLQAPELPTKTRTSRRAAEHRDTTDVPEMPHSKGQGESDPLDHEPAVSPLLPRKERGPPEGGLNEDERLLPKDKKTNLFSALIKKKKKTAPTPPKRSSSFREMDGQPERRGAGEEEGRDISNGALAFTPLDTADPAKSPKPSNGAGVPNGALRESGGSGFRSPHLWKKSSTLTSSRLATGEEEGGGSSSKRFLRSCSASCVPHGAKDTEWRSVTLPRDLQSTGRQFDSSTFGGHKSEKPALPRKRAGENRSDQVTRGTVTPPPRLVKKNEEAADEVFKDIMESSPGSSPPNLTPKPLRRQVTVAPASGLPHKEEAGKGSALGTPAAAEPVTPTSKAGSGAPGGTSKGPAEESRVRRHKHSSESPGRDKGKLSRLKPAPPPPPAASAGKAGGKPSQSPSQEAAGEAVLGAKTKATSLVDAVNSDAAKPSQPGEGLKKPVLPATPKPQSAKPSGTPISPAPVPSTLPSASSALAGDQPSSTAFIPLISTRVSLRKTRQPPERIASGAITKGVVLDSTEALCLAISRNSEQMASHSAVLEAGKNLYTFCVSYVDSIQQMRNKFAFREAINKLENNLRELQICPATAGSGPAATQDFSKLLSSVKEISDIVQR
Chain of Ras and Rab interactor 1/Tyrosine-protein kinase ABL1 (Q13671 whole entry): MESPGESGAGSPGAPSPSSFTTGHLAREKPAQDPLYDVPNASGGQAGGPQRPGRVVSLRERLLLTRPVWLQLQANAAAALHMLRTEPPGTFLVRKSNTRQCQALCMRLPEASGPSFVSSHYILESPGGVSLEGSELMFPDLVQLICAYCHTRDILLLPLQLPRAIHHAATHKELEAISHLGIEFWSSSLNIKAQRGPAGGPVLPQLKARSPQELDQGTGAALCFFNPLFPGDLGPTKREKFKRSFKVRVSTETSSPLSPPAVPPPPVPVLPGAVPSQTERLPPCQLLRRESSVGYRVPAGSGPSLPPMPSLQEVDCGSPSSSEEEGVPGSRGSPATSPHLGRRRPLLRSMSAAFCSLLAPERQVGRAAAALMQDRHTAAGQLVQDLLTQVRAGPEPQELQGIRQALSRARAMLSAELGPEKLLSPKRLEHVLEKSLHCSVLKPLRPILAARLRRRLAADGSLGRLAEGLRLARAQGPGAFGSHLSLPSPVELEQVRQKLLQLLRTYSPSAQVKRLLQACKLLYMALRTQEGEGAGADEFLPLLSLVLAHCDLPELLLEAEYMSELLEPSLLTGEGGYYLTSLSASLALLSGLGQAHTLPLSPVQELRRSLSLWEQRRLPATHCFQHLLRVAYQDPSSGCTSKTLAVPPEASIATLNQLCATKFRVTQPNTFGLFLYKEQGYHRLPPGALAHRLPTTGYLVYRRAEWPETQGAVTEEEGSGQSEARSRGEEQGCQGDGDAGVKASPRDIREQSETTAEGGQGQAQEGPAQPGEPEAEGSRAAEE
Chain of Cytochrome P450 3A4 (P08684 whole entry): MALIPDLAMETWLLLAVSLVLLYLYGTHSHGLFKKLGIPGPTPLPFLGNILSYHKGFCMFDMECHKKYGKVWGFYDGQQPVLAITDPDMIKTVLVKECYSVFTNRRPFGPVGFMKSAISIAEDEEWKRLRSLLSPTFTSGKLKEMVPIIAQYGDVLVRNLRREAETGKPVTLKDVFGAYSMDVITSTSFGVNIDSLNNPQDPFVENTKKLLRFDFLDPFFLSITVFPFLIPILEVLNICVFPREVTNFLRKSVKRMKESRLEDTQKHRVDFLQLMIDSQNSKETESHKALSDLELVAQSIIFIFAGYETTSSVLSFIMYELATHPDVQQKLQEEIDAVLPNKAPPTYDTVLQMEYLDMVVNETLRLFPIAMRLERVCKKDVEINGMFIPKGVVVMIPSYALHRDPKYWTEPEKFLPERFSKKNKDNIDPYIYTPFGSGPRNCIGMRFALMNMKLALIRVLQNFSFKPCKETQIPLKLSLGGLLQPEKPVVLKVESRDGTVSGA
Chain of Beta-galactosidase (Q8VNN2 whole entry): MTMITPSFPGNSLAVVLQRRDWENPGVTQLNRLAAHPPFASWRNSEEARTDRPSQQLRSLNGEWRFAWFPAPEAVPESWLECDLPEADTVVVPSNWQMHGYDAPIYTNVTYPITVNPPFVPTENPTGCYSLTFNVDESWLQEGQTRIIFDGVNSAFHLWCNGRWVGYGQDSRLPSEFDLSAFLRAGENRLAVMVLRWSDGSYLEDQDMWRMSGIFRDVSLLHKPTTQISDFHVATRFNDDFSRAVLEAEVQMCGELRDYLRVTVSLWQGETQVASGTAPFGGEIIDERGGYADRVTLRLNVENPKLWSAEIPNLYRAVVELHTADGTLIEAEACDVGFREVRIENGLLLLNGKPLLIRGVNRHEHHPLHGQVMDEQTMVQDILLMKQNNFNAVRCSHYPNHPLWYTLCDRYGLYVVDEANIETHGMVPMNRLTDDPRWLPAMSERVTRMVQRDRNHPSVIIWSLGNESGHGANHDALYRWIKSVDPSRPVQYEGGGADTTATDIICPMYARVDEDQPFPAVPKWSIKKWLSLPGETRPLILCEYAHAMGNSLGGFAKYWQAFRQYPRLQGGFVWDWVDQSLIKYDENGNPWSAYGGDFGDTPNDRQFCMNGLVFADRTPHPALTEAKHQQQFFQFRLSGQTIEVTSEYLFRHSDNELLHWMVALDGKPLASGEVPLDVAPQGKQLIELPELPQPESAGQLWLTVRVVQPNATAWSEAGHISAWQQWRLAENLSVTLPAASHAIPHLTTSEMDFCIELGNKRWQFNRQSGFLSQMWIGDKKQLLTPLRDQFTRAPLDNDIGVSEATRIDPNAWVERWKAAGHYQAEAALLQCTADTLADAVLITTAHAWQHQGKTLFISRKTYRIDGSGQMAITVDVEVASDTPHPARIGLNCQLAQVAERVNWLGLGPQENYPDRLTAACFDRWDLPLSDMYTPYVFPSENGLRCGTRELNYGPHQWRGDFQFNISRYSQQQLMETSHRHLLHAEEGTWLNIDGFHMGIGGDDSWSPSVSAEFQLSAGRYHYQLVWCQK
Chain of Melanocortin receptor 4 (P32245 whole entry): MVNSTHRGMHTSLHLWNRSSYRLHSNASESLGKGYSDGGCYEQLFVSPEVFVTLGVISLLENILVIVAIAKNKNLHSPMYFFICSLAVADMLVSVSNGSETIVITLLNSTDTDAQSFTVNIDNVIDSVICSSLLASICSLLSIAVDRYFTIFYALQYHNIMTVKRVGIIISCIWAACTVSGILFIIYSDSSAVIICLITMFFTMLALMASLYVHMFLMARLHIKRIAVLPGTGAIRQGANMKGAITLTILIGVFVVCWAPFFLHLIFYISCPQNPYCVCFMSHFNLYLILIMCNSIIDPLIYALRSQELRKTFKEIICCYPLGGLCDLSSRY
Chain of Cytochrome P450 2D6 (P10635 whole entry): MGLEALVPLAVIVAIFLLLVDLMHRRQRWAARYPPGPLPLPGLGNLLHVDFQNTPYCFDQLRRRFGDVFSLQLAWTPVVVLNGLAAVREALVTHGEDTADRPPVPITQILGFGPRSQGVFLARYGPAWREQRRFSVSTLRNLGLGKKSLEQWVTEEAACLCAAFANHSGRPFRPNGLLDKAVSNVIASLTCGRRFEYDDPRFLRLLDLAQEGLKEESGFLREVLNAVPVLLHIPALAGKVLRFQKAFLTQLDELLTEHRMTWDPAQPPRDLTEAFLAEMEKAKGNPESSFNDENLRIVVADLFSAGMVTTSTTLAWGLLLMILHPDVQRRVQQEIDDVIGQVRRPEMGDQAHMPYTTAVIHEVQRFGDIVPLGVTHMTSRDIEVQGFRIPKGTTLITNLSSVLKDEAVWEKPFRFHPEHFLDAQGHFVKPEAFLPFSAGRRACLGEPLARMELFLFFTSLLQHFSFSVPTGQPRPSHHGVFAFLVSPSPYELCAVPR

O=C(Nc1cc(S(=O)(=O)N2CCOCC2)ccc1N1CCOCC1)c1ccccc1F
EC50 (Insulin-degrading enzyme [1]): > 54.7 µM (inactive) | EC50 (Insulin-degrading enzyme [2]): > 54.7 µM (inactive) | IC50 (HEK293 [3]): > 89.2 µM (inactive) | EC50 (HEK293 [4]): > 54.7 µM (inactive)

O=C(NNS(=O)(=O)c1ccc(Cl)cc1)C1CCN(Cc2ccccc2)CC1
AC50 (Cytochrome P450 2D6): 1 µM (inconclusive) | AC50 (Cytochrome P450 3A4): inconclusive

Cc1ccc(CS(=O)(=O)c2ncc(Cl)c(C(=O)Nc3ccc(OC(F)F)cc3)n2)cc1
EC50 [5]: > 120 µM (not active) | EC50 [6]: 8.23 µM (active) | EC50 [7]: 12.7 µM (active) | EC50 (Beta-galactosidase): > 40 µM (inactive) | EC50 [8]: 18.1 µM (active) | EC50 (Streptokinase A): 2.07 µM (active) | IC50 [9]: 11.3 µM (active) | EC50 (Streptococcus): 22.1 µM (active) | AC50 [10]: 2.34 µM (active) | AC50 [11]: 61.5 µM (active) | AC50 [12]: 13.5 µM (active)

O=C(N=Nc1c(O)n(Cc2ccccc2)c2ccccc12)c1ccc(O)cc1
AC50 (HeLa): 39.7 µM (active)

Oc1cc(SCc2ccccc2)ncn1
IC50 [13]: 0.514 µM (active)

Cc1ccccc1CN1Cc2cnnn2-c2ccccc2C1C#N (configuration not stated)
IC50 (Melanocortin receptor 4): 7.25 µM (active) | IC50 [14]: > 64.5 µM (inactive) | AC50 [15]: 20.9 µM (active) | AC50 [16]: 17 µM (active) | AC50 [17]: 13.8 µM (active) | AC50 [18]: 8.97 µM (active) | AC50 [19]: 15.8 µM (active)

CC/C(=N\NC(=O)c1csc(C)c1C)c1cccs1
AC50 (HeLa): > 350 µM (inactive)
